The supplement of paper PMC10307832

Tests used:
Experiment in all cases: relative viability (nuclei count vs DMSO), 5 days (fraction); higher = more cells survive
BMX-IN-1 + Dasatinib = compound: C=CC(=O)Nc1cc(-n2c(=O)ccc3cnc4ccc(-c5ccc(NS(C)(=O)=O)cc5)cc4c32)ccc1C [BMX-IN-1] + Cc1nc(Nc2ncc(C(=O)Nc3c(C)cccc3Cl)s2)cc(N2CCN(CCO)CC2)n1 [Dasatinib] (partner 0.075 µM)
In short: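 For relative viability, nuclei counts in treated wells were divided by those in vehicle wells. Lung cancer cell lines had been pin-tool dosed in 1536-well plates the day after seeding and cultured for 5 days, then fixed and stained in one step (final 0.05% Triton X-100, 1% formaldehyde, 1 ug/ml Hoechst) and imaged at 4×. Doses were one drug alone or a fixed anchor-drug dose plus five library-drug doses (not always all listed) in √10 steps, and values are duplicate-plate medians.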

BMX-IN-1 = compound: C=CC(=O)Nc1cc(-n2c(=O)ccc3cnc4ccc(-c5ccc(NS(C)(=O)=O)cc5)cc4c32)ccc1C [BMX-IN-1]
In short: (§1)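 Acceptance criteria were a control CV below 25% and at least one doubling per plate. Lung cancer cell lines in 1536-well plates got five library-drug doses (not always all listed) √10 apart by pinning and were left 5 days with no medium change. Viability divides treated-well nuclei by vehicle-well nuclei and is the median across plates. Nuclei were counted by MetaXpress from 4× Hoechst images.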

PAC-1 = compound: C=CCc1cccc(/C=N/NC(=O)CN2CCN(Cc3ccccc3)CC2)c1O [PAC-1]
In short: as §1

Ibrutinib = compound: C=CC(=O)N1CCC[C@@H](n2nc(-c3ccc(Oc4ccccc4)cc3)c3c(N)ncnc32)C1 [Ibrutinib]
In short: as §1

Cell Line	relative viability (BMX-IN-1 + Dasatinib; first compound 0.02 µM)	relative viability (BMX-IN-1 + Dasatinib; first compound 0.2 µM)	relative viability (BMX-IN-1 + Dasatinib; first compound 0.6325 µM)	relative viability (BMX-IN-1 + Dasatinib; first compound 2 µM)	relative viability (BMX-IN-1; 0.02 µM)	relative viability (BMX-IN-1; 0.2 µM)	relative viability (BMX-IN-1; 0.6325 µM)	relative viability (BMX-IN-1; 2 µM)	relative viability (PAC-1; 0.02 µM)	relative viability (PAC-1; 0.06325 µM)	relative viability (PAC-1; 0.2 µM)	relative viability (PAC-1; 2 µM)	relative viability (Ibrutinib; 0.01581 µM)	relative viability (Ibrutinib; 0.05 µM)	relative viability (Ibrutinib; 0.1581 µM)	relative viability (Ibrutinib; 0.5 µM)	relative viability (Ibrutinib; 0.005 µM)
HCC-827	0.296	0.277	0.371	0.276	1.05	1.06	1.09	1.04	1.08	1.04	1.07	1.03	1.01	1.08	1.02	0.868	
HOP-62	0.587	0.786	0.768	0.729	1.1	1.08	1.08	1.06	1.05	1	0.996	1.07	0.964	0.994	0.949	1.14	1.02
IA-LM					1	0.997	1.04	1.02	1.09	1.05	0.89	1.03	1	1.06	1.05	1.04	0.794
LC-2-ad	0.658	0.737	0.74	0.642	1.1	1.05	1.08	1.02	1.01	1.04	1.01	0.974	0.973	0.941	0.905	0.995	0.996
LCLC-97TM1	0.927	0.893	1	0.943	1.04	1.11	1.12	1.02	0.897	1.16	0.807	0.937	0.888	0.906	0.85	0.909	1.11
LCLC-103H	0.519	0.477	0.522	0.535	1.09	1.1	1.07	1.1	1	0.975	1.02	1.01	0.999	0.965	0.882	0.946	0.966
LK-2	0.338	0.325	0.304	0.282	1.31	1.24	0.978	1.02	0.933	0.983	1	1.02	0.912	0.956	0.929	0.949	0.936
LOU-NH91	0.553		0.657	0.559		0.973	1.08	0.989	0.891	0.959	0.917	0.972	0.926	0.848	0.884	0.678	0.801
LU99A	0.646	0.56	0.793	0.555	0.986	0.95	1.06	0.962	0.908	0.977	0.892	0.954	0.884	0.892	1.06	0.939	0.992
LXF-289	0.197	0.204	0.247	0.266	1.06	1.05	1.01	1.02	0.974	1.01	0.997	1.01	1.01	1.04	0.972	0.973	1.06
NCI-H23	0.839	0.994	0.855	0.722	0.963	1.1	1.16	1.09	0.845	1.03	0.921	1.13	0.897	0.912	0.761	0.977	0.829
NCI-H322M	0.261	0.251	0.262	0.256	1.07	0.905	0.967	0.943	0.833	0.897	1.05	0.884	0.811	0.843	0.666	0.671	0.801
NCI-H358	0.166	0.145	0.176	0.135	1.12	0.962	1.04	0.914	0.921	0.848	0.905	0.789	0.713	0.611	0.786	0.47	0.637
NCI-H441	0.741	0.79	0.709	0.707	1.19	1.31	1.28	1.17	1.03	1.09	0.997	1.04	0.947	1.26	1.16	1.13	1.11
NCI-H460	0.621	0.682	0.679	0.494	1.24	1.09	1.04	1.07	0.979	0.966	0.934	1.07	0.922	0.979	0.917	1.02	1.07
NCI-H520	0.222	0.263	0.239	0.224	1.26	1.02	1.1	1.04	0.964	0.957	0.899	0.99	0.791	0.991	1	0.839	0.874
NCI-H522	0.894	1.02	0.89	0.821	0.882	0.906	1.04	0.938	1.08	1.1	0.872	1.05	1.09	0.85	0.752	0.76	0.796
NCI-H1299					1.09	1.08	1.07	1.06	1.03	0.979	1	1.01	1.01	1.05	1.01	1.05	1.02
NCI-H1648					0.937	0.878	0.792	0.829	0.795	1.07	0.931	0.991	0.751	0.676	0.792	0.63	0.758
NCI-H1703					1.1	0.914	0.862	0.805	0.993	0.903	0.955	0.962	0.864	0.916	0.879	0.769	
